biological target: T1, human PTHR1 receptor (Homo sapiens, UniProt Q03431); experiment: Competitive antagonist binding assay for hPTH-R1 (radioactive competition binding, SPA beads); settings: human PTHR1 membranes, [125I]-[Nle8,18,Tyr34]-PTH(1-34) 0.2 nM, 90 minutes at room temperature; read-out: hPTHR1 Ki
T1 construct: purchased Eurofins HTS030M
T1 sequence (Q03431 27-593): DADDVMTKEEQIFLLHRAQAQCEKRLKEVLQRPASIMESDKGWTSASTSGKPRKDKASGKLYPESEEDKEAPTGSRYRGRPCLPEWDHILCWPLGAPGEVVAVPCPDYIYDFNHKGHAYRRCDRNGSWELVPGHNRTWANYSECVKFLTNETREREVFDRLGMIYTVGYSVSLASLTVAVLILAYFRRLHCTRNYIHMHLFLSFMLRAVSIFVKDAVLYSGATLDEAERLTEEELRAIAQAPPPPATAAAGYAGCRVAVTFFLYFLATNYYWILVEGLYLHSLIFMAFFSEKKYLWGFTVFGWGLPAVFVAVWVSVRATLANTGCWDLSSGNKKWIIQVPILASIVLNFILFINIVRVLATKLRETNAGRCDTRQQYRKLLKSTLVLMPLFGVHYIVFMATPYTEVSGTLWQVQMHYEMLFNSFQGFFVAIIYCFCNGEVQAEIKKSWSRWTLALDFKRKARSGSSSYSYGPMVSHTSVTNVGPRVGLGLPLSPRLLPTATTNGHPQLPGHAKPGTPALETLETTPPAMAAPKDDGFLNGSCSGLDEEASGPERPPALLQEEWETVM
In short: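 Human PTHR1 membranes on SPA beads incubated 90 min at room temperature with compound (typically 0-10,000 nM final) and 0.2 nM [125I]-[Nle8,18,Tyr34]-PTH(1-34) in HEPES buffer with MgCl2, CaCl2, BSA, Triton X-100 and protease inhibitors, pH 7.4. Scintillation signal read; Ki values derived.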

| Ki | Compound |
| --- | --- |
| < 100 nM | CN1C(=O)N(c2c(F)cc(NCCNCCCC(=O)O)cc2F)c2cc(C#N)ccc2-c2cc(Cl)cnc21 [1-201, 4-({2-[(4-{4-chloro-13-cyano-8-methyl-9-oxo-6,8,10-triazatricyclo[9.4.0.0^2,7]pentadeca-1(11),2(7),3,5,12,14-hexaen-10-yl}-3,5-difluorophenyl)amino]ethyl}amino)butanoic acid] |
| < 100 nM | Cc1cc(Cl)cc2c1-c1cc(F)cnc1N(C(C)C)C(=O)N2c1c(F)cc(NCCNCCCC(=O)O)cc1F [1-80, 4-{[2-({4-[13-chloro-4-fluoro-15-methyl-9-oxo-8-(propan-2-yl)-6,8,10-triazatricyclo[9.4.0.0^2,7]pentadeca-1(11),2(7),3,5,12,14-hexaen-10-yl]-3,5-difluorophenyl}amino)ethyl]amino}butanoic acid] |
| < 100 nM | CCCN1C(=O)N(c2c(F)cc(NCCNC)cc2F)c2cc(C#N)ccc2-c2cc(F)cnc21 [1-117, 10-(2,6-difluoro-4-{[2-(methylamino)ethyl]amino}phenyl)-4-fluoro-9-oxo-8-propyl-6,8,10-triazatricyclo[9.4.0.0^2,7]pentadeca-1(11),2(7),3,5,12,14-hexaene-13-carbonitrile] |
| < 100 nM | CC(C)N1C(=O)N(c2c(F)cc(NCCNCCO)cc2F)c2cc(C#N)ccc2-c2cc(Cl)cnc21 [1-92, 4-chloro-10-[2,6-difluoro-4-({2-[(2-hydroxyethyl)amino]ethyl}amino)phenyl]-9-oxo-8-(propan-2-yl)-6,8,10-triazatricyclo[9.4.0.0^2,7]pentadeca-1(11),2(7),3,5,12,14-hexaene-13-carbonitrile] |
| < 100 nM | CCN1C(=O)N(c2c(F)cc(N3CC[C@@H](N)C3)cc2F)c2cc(Cl)ccc2-c2cc(Cl)cnc21 [1-42, 10-{4-[(3R)-3-aminopyrrolidin-1-yl]-2,6-difluorophenyl}-4,13-dichloro-8-ethyl-6,8,10-triazatricyclo[9.4.0.0^2,7]pentadeca-1(11),2(7),3,5,12,14-hexaen-9-one] |
| < 100 nM | CCN1C(=O)N(c2c(F)cc(NCCN[C@@H](C)C(=O)O)cc2F)c2cc(C#N)ccc2-c2cc(Cl)cnc21 [1-219, (2S)-2-({2-[(4-{4-chloro-13-cyano-8-ethyl-9-oxo-6,8,10-triazatricyclo[9.4.0.0^2,7]pentadeca-1(11),2(7),3,5,12,14-hexaen-10-yl}-3,5-difluorophenyl)amino]ethyl}amino)propanoic acid] |
| < 100 nM | CCN1C(=O)N(c2c(F)cc(NCCN[C@@H]3CC[C@@H]3O)cc2F)c2cc(C#N)ccc2-c2cc(F)cnc21 [1-204, 10-{2,6-difluoro-4-[(2-{[(1R,2S)-2-hydroxycyclobutyl]amino}ethyl)amino]phenyl}-8-ethyl-4-fluoro-9-oxo-6,8,10-triazatricyclo[9.4.0.0^2,7]pentadeca-1(11),2(7),3,5,12,14-hexaene-13-carbonitrile] |
| < 100 nM | CCN1C(=O)N(c2c(F)cc(NCCNC)cc2F)c2cc(C(F)(F)F)ccc2-c2cc(F)cnc21 [1-66, 10-(2,6-difluoro-4-{[2-(methylamino)ethyl]amino}phenyl)-8-ethyl-4-fluoro-13-(trifluoromethyl)-6,8,10-triazatricyclo[9.4.0.0^2,7]pentadeca-1(11),2(7),3,5,12,14-hexaen-9-one] |
| < 100 nM | CCN1C(=O)N(c2c(F)cc(NCCN)cc2F)c2cc(Cl)ccc2-c2cc(C)cnc21 [1-22, 10-{4-[(2-aminoethyl)amino]-2,6-difluorophenyl}-13-chloro-8-ethyl-4-methyl-6,8,10-triazatricyclo[9.4.0.0^2,7]pentadeca-1(11),2(7),3,5,12,14-hexaen-9-one] |
| < 100 nM | CCN1C(=O)N(c2c(F)cc(NCCN[C@H](C)CO)cc2F)c2cc(C#N)ccc2-c2cc(Cl)cnc21 [1-173, 4-chloro-10-{2,6-difluoro-4-[(2-{[(2R)-1-hydroxypropan-2-yl]amino}ethyl)amino]phenyl}-8-ethyl-9-oxo-6,8,10-triazatricyclo[9.4.0.0^2,7]pentadeca-1(11),2(7),3,5,12,14-hexaene-13-carbonitrile] |
| < 100 nM | CCN1C(=O)N(c2c(F)cc(NCCNC)cc2F)c2cc(Cl)ccc2-c2cc(C#N)cnc21 [1-89, 13-chloro-10-(2,6-difluoro-4-{[2-(methylamino)ethyl]amino}phenyl)-8-ethyl-9-oxo-6,8,10-triazatricyclo[9.4.0.0^2,7]pentadeca-1(11),2(7),3,5,12,14-hexaene-4-carbonitrile] |
| < 100 nM | CC(C)N1C(=O)N(c2c(F)cc(NCCNCCO)cc2F)c2cc(C#N)cc(F)c2-c2cc(F)cnc21 [1-108, 10-[2,6-difluoro-4-({2-[(2-hydroxyethyl)amino]ethyl}amino)phenyl]-4,15-difluoro-9-oxo-8-(propan-2-yl)-6,8,10-triazatricyclo[9.4.0.0^2,7]pentadeca-1(11),2(7),3,5,12,14-hexaene-13-carbonitrile] |
| < 100 nM | CCN1C(=O)N(c2c(F)cc(NCCN[C@H]3C[C@H](C(=O)O)C3)cc2F)c2cc(C#N)ccc2-c2cc(Cl)cnc21 [1-206, (1r,3r)-3-({2-[(4-{4-chloro-13-cyano-8-ethyl-9-oxo-6,8,10-triazatricyclo[9.4.0.0^2,7]pentadeca-1(11),2(7),3,5,12,14-hexaen-10-yl}-3,5-difluorophenyl)amino]ethyl}amino)cyclobutane-1-carboxylic acid] |
| < 100 nM | CCN1C(=O)N(c2c(F)cc(NCCNCCO)cc2F)c2cc(Cl)ccc2-c2cc(C(F)(F)F)cnc21 [1-56, 13-chloro-10-[2,6-difluoro-4-({2-[(2-hydroxyethyl)amino]ethyl}amino)phenyl]-8-ethyl-4-(trifluoromethyl)-6,8,10-triazatricyclo[9.4.0.0^2,7]pentadeca-1(11),2(7),3,5,12,14-hexaen-9-one] |
| < 100 nM | CCN1C(=O)N(c2c(F)cc(NCCN[C@@H](CC(C)C)C(=O)O)cc2F)c2cc(C#N)ccc2-c2cc(Cl)cnc21 [1-240, (2S)-2-({2-[(4-{4-chloro-13-cyano-8-ethyl-9-oxo-6,8,10-triazatricyclo[l9.4.0.0^2,7]pentadeca-1(11),2(7),3,5,12,14-hexaen-10-yl}-3,5-difluorophenyl)amino]ethyl}amino)-4-methylpentanoic acid] |
| < 100 nM | CCN1C(=O)N(c2c(F)cc(N3CCC(NCCO)C3)cc2F)c2cc(C#N)ccc2-c2cc(Cl)cnc21 (stereo not drawn) [1-182, 4-chloro-10-(2,6-difluoro-4-{3-[(2-hydroxyethyl)amino]pyrrolidin-1-yl}phenyl)-8-ethyl-9-oxo-6,8,10-triazatricyclo[9.4.0.0^2,7]pentadeca-1(11),2(7),3,5,12,14-hexaene-13-carbonitrile] |
| < 100 nM | CC(C)N1C(=O)N(c2c(F)cc(NCCNCCCC(=O)O)cc2F)c2cc(C#N)cc(F)c2-c2cc(F)cnc21 [1-163, 4-{[2-({4-[13-cyano-4,15-difluoro-9-oxo-8-(propan-2-yl)-6,8,10-triazatricyclo[9.4.0.0^2,7]pentadeca-1(15),2(7),3,5,11,13-hexaen-10-yl]-3,5-difluorophenyl}amino)ethyl]amino}butanoic Acid] |
| < 100 nM | CCN1C(=O)N(c2c(F)cc(NCCNCCCC(=O)O)cc2F)c2cc(Cl)ccc2-c2cccnc21 [1-6, 4-({2-[(4-{13-chloro-8-ethyl-9-oxo-6,8,10-triazatricyclo[9.4.0.0^2,7]pentadeca-1(11),2(7),3,5,12,14-hexaen-10-yl}-3,5-difluorophenyl)amino]ethyl}amino)butanoic acid] |

Source: patent publication US20230159532A1, “PARATHYROID HORMONE (PTH) RECEPTOR ANTAGONISTS AND USES THEREOF” (Crinetics Pharmaceuticals, Inc., priority 2021, published 2023)
